Where two headings read alike, the source gives them in different places.
What was measured:
PKC epsilon = target: T1, PKC epsilon (Homo sapiens, UniProt Q02156); experiment: Biochemical assay for PKC epsilon (fluorescence polarization, Protein Kinase C Assay Kit, Red); details: read-out: IC50 μM PKCε
T1 construct: purchased Invitrogen P2282
T1 sequence (Q02156 1-737): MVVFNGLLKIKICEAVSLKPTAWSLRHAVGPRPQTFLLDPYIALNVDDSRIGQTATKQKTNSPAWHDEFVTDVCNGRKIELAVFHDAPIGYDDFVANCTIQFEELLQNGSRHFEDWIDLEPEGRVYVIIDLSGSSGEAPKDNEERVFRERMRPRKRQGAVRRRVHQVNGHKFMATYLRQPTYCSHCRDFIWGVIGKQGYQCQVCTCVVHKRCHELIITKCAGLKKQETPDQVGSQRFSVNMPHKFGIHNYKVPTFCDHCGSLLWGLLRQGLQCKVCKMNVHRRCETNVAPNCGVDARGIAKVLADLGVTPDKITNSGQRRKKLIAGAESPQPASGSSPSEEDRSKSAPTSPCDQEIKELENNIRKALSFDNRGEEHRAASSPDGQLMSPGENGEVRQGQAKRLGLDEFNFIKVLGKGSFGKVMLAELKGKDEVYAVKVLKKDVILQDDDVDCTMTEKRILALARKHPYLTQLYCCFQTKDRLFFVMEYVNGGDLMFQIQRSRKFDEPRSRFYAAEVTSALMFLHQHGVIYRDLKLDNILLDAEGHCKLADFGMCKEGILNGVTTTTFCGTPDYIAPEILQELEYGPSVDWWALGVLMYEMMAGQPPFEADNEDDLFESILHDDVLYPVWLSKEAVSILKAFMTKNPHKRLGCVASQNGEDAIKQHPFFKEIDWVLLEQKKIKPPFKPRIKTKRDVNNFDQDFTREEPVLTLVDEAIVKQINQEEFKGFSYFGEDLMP
Summary of the method: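 Read-out was fluorescence-polarization competition between phosphorylated substrate and a rhodamine PKC tracer for an anti-phosphoserine antibody, added with EDTA stop after an 80 min room-temperature kinase reaction with ATP and protein substrate (Mg2+/Ca2+ buffer). Enzyme (10 ng/ml final) was preincubated with compound for 30 min.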

human ROCKα/ROCKII mix = target: T2, human ROCKα/ROCKII mix (Homo sapiens, UniProt O75116); experiment: Biochemical assay for ROCK (fluorescence polarization, ROCK IMAP Kit)
T2 construct: purchased Upstate Biotechnology 14-451
T2 sequence (O75116 11-552 limits assumed): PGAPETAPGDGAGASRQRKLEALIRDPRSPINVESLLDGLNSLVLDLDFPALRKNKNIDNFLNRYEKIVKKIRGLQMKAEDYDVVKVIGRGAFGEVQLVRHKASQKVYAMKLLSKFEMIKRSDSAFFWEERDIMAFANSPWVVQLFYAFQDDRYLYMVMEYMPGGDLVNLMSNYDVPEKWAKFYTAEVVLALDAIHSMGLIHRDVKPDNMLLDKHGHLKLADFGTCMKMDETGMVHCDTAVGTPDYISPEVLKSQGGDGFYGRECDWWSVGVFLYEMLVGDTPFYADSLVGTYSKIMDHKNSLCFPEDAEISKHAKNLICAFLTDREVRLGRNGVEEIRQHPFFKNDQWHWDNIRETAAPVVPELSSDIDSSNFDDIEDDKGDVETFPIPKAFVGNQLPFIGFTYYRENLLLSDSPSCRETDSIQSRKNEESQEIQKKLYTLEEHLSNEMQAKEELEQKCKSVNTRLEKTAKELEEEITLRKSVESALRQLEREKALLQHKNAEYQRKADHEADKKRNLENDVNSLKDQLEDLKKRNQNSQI

[1] = compounds of Formula XIV, Table 3

Compound | IC50 (PKC epsilon) | IC50 (human ROCKα/ROCKII mix) | IC50 (PKC epsilon; [1]) | IC50 (human ROCKα/ROCKII mix; [1])
NC(c1ccc(C(=O)Nc2ccncc2)cc1)C1CCCN1C(=O)C1(c2ccc(Cl)c(Cl)c2)CC1 (centres unmarked) [Compound 594, 4-(Amino-{1-[1-(3,4-dichloro-phenyl)-cyclopropanecarbonyl]-pyrrolidin-2-yl}-methyl)-N-pyridin-4-yl-benzamide] | 0.5 to 5 µM | 0.5 to 5 µM | – | –
NC(c1ccc(C(=O)Nc2ccncc2)cc1)C1CCCN1C(=O)C1(c2ccc(Cl)c(Cl)c2)CCC1 (centres unmarked) [Compound 595, 4-(Amino-{1-[1-(3,4-dichloro-phenyl)-cyclobutanecarbonyl]-pyrrolidin-2-yl}-methyl)-N-pyridin-4-yl-benzamide] | 0.5 to 5 µM | 0.5 to 5 µM | – | –
NC(c1ccc(C(=O)Nc2ccncc2)cc1)C1CCCN1C(=O)C1(c2ccc(Cl)cc2Cl)CC1 (centres unmarked) [Compound 596, 4-(Amino-{1-[1-(2,4-dichloro-phenyl)-cyclopropanecarbonyl]-pyrrolidin-2-yl}-methyl)-N-pyridin-4-yl-benzamide] | 5 to 50 µM | 0.5 to 5 µM | – | –
NC(c1ccc(C(=O)Nc2ccncc2)cc1)C1CCCN1C(=O)C1(c2ccc(F)cc2Cl)CC1 (centres unmarked) [Compound 600, 4-(Amino-{1-[1-(2-chloro-4-fluoro-phenyl)-cyclopropanecarbonyl]-pyrrolidin-2-yl}-methyl)-N-pyridin-4-yl-benzamide] | 0.5 to 5 µM | 0.5 to 5 µM | – | –
NC(c1ccc(C(=O)Nc2ccncc2)cc1)C1CCCN1C(=O)C1CCc2ccccc21 (centres unmarked) [Compound 608, 4-{Amino-[1-(indane-1-carbonyl)-pyrrolidin-2-yl]-methyl}-N-pyridin-4-yl-benzamide] | 0.5 to 5 µM | 0.5 to 5 µM | – | –
NC(c1ccc(C(=O)Nc2ccncc2)cc1)C1CCCN1C(=O)C1CC(=O)c2ccccc21 (centres unmarked) [Compound 609, 4-{Amino-[1-(3-oxo-indane-1-carbonyl)-pyrrolidin-2-yl]-methyl}-N-pyridin-4-yl-benzamide] | 0.5 to 5 µM | 0.5 to 5 µM | – | –
NC(c1ccc(C(=O)Nc2ccncc2)cc1)C1CCCN1C(=O)C1CCc2cc(F)ccc21 (centres unmarked) [Compound 610, 4-{Amino-[1-(5-fluoro-indane-1-carbonyl)-pyrrolidin-2-yl]-methyl}-N-pyridin-4-yl-benzamide] | 5 to 50 µM | 0.5 to 5 µM | – | –
NC(c1ccc(C(=O)Nc2ccncc2)cc1)C1CCCN1C(=O)C1CCCc2ccccc21 (centres unmarked) [Compound 613, 4-{Amino-[1-(1,2,3,4-tetrahydro-naphthalene-1-carbonyl)-pyrrolidin-2-yl]-methyl}-N-pyridin-4-yl-benzamide] | 0.5 to 5 µM | 0.5 to 5 µM | – | –
NC(c1ccc(C(=O)Nc2ccncc2)cc1)C1CCCN1C(=O)C1CCOc2ccccc21 (centres unmarked) [Compound 615, 4-{Amino-[1-(chroman-4-carbonyl)-pyrrolidin-2-yl]-methyl}-N-pyridin-4-yl-benzamide] | 5 to 50 µM | 0.5 to 5 µM | – | –
NC(c1ccc(C(=O)Nc2ccncc2)cc1)C1CCCN1C(=O)C1CCOc2ccc(Cl)cc21 (centres unmarked) [Compound 616, 4-{Amino[1-(6-chloro-chroman-4-carbonyl)-pyrrolidin-2-yl]-methyl}-N-pyridin-4-benzamide] | 0.5 to 5 µM | 0.5 to 5 µM | – | –
NC(c1ccc(C(=O)Nc2ccncc2)cc1)C1CCCN1C(=O)C1CCOc2ccc(F)cc21 (centres unmarked) [Compound 617, 4-{Amino[1-(6-fluoro-chroman-4-carbonyl)-pyrrolidin-2-yl]-methyl}-N-pyridin-4-benzamide] | 0.5 to 5 µM | 0.5 to 5 µM | – | –
NC(c1ccc(C(=O)Nc2ccncc2)cc1)C1CCCN1C(=O)C1CCSc2ccccc21 (centres unmarked) [Compound 618, 4-{Amino[1-(thiochroman-4-carbonyl)-pyrrolidin-2-yl]-methyl}-N-pyridin-4-yl-benzamide] | 0.5 to 5 µM | 0.5 to 5 µM | – | –
NC(c1ccc(C(=O)Nc2ccncc2)cc1)C1CCCN1C(=O)C1CCSc2ccc(F)cc21 (centres unmarked) [Compound 619, 4-{Amino[1-(6-fluoro-thiochroman-4-carbonyl)-pyrrolidin-2-yl]-methyl}-N-pyridin-4-yl-benzamide] | 0.5 to 5 µM | 0.5 to 5 µM | – | –
NC(c1ccc(C(=O)Nc2ccncc2)cc1)C1CCCN1C(=O)C1CCCCc2ccc(F)cc21 (centres unmarked) [Compound 620, 4-{Amino-[1-(3-fluoro-6,7,8,9-tetrahydro-5H-benzocycloheptene-5-carbonyl)-pyrrolidin-2-yl]-methyl}-N-pyridin-4-yl-benzamide] | 5 to 50 µM | 5 to 50 µM | – | –
NC(c1ccc(C(=O)Nc2ccncc2)cc1)C1CCCN1C(=O)C1CCCc2sccc21 (centres unmarked) [Compound 621, 4-{Amino-[1-(4,5,6,7-tetrahydro-benzo[b]thiophene-4-carbonyl)-pyrrolidin-2-yl]-methyl}-N-pyridin-4-yl-benzamide] | 0.5 to 5 µM | 0.05 to 0.5 µM | – | –
CC(C)(NC(=O)CC(N)c1ccc(C(=O)Nc2ccncc2)cc1)c1ccc(Cl)cc1 (centres unmarked) [Compound 622, 4-{1-Amino-2-[1-(4-chloro-phenyl)-1-methyl-ethylcarbamoyl]-ethyl}-N-pyridin-4-yl-benzamide] | – | – | 0.05 to 0.5 µM | 0.05 to 0.5 µM
Bicyclo[4.2.0]octa-1(6),2,4- triene-7-carboxylic acid {2- amino-2-[4-(pyridin-4- ylcarbamoyl)-phenyl]-ethyl}- methyl-amide [Compound 451] | 5 to 50 µM | 0.05 to 0.5 µM | – | –
Chroman-4-carboxylic acid {2-amino-2-[4-(pyridin-4- ylcarbamoyl)-phenyl]-ethyl}- methyl-amide [Compound 514] | 5 to 50 µM | 0.5 to 5 µM | – | –

Second part, the compound after the results:

IC50 (PKC epsilon) | IC50 (human ROCKα/ROCKII mix) | IC50 (PKC epsilon; [1]) | IC50 (human ROCKα/ROCKII mix; [1]) | Compound
0.5 to 5 µM | 0.5 to 5 µM | – | – | NC(c1ccc(C(=O)Nc2ccncc2)cc1)C1CCCN1C(=O)Cc1ccc(Cl)c(Cl)c1 (centres unmarked) [Compound 592, 4-(Amino-{1-[2-(3,4-dichloro-phenyl)-acetyl]-pyrrolidin-2-yl}-methyl)-N-pyridin-4-yl-benzamide]
5 to 50 µM | 0.5 to 5 µM | – | – | CC(C)(C(=O)N1CCCC1C(N)c1ccc(C(=O)Nc2ccncc2)cc1)c1ccc(Cl)c(Cl)c1 (centres unmarked) [Compound 593, 4-(Amino-{1-[2-(3,4-dichloro-phenyl)-2-methyl-propionyl]-pyrrolidin-2-yl}-methyl)-N-pyridin-4-yl-benzamide]
5 to 50 µM | 0.5 to 5 µM | – | – | NC(c1ccc(C(=O)Nc2ccncc2)cc1)C1CCCN1C(=O)Cc1c(F)cccc1Cl (centres unmarked) [Compound 597, 4-(Amino-{1-[2-(2-chloro-6-fluoro-phenyl)-acetyl]-pyrrolidin-2-yl}-methyl)-N-pyridin-4-yl-benzamide]
5 to 50 µM | 0.5 to 5 µM | – | – | NC(c1ccc(C(=O)Nc2ccncc2)cc1)C1CCCN1C(=O)Cc1ccc(Cl)cc1F (centres unmarked) [Compound 598, 4-(Amino-{1-[2-(4-chloro-2-fluoro-phenyl)-acetyl]-pyrrolidin-2-yl}-methyl)-N-pyridin-4-yl-benzamide]
0.5 to 5 µM | 0.5 to 5 µM | – | – | NC(c1ccc(C(=O)Nc2ccncc2)cc1)C1CCCN1C(=O)Cc1ccc(F)cc1Cl (centres unmarked) [Compound 599, 4-(Amino-{1-[2-(2-chloro-4-fluoro-phenyl)-acetyl]-pyrrolidin-2-yl}-methyl)-N-pyridin-4-yl-benzamide]
5 to 50 µM | 0.5 to 5 µM | – | – | NC(c1ccc(C(=O)Nc2ccncc2)cc1)C1CCCN1C(=O)Cc1cccc(Cl)c1F (centres unmarked) [Compound 602, 4-(Amino-{1-[2-(3-chloro-2-fluoro-phenyl)-acetyl]-pyrrolidin-2-yl}-methyl)-N-pyridin-4-yl-benzamide]
0.5 to 5 µM | 0.05 to 0.5 µM | – | – | NC(c1ccc(C(=O)Nc2ccncc2)cc1)C1CCCN1C(=O)Cc1ccc(F)c(Cl)c1 (centres unmarked) [Compound 603, 4-(Amino-{1-[2-(3-chloro-4-fluoro-phenyl)-acetyl]-pyrrolidin-2-yl}-methyl)-N-pyridin-4-yl-benzamide]
0.5 to 5 µM | 0.5 to 5 µM | – | – | NC(c1ccc(C(=O)Nc2ccncc2)cc1)C1CCCN1C(=O)C1(c2ccc(Cl)cc2F)CC1 (centres unmarked) [Compound 605, 4-(Amino-{1-[1-(4-chloro-2-fluoro-phenyl)-cyclopropanecarbonyl]-pyrrolidin-2-yl}-methyl)-N-pyridin-4-yl-benzamide]
0.5 to 5 µM | 0.5 to 5 µM | – | – | CC(C)(C(=O)N1CCCC1C(N)c1ccc(C(=O)Nc2ccncc2)cc1)c1ccc(F)c(Cl)c1 (centres unmarked) [Compound 606, 4-(Amino-{1-[2-(3-chloro-4-fluoro-phenyl)-2-methyl-propionyl]-pyrrolidin-2-yl}-methyl)-N-pyridin-4-yl-benzamide]
0.5 to 5 µM | 0.5 to 5 µM | – | – | NC(c1ccc(C(=O)Nc2ccncc2)cc1)C1CCCN1C(=O)C1(c2ccc(F)c(Cl)c2)CC1 (centres unmarked) [Compound 607, 4-(Amino-{1-[1-(3-chloro-4-fluoro-phenyl)-cyclopropanecarbonyl]-pyrrolidin-2-yl}-methyl)-N-pyridin-4-yl-benzamide]
